In ChEMBL document CHEMBL1201862, “PubChem BioAssay data set” (2004):
The source made the active and inactive calls.

How the values were obtained:
Cytochrome P450 3A4 = Cytochrome P450 3A4 (Homo sapiens, UniProt P08684);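 further: CYP3A4 tested as one member of a cytochrome P450 panel screen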
Cytochrome P450 2C19 = Cytochrome P450 2C19 (Homo sapiens, UniProt P33261); test: Cytochrome panel assay with activity outcomes. Panel member name: p450-cyp2c19 Compounds with AC50 equal or less than 10 uM are considered active; type: functional; details: read-out: AC50
Cytochrome P450 2C9 = Cytochrome P450 2C9 (Homo sapiens, UniProt P11712)
cells [1] = type: functional, cell-based
[2] = molecular target: T1, Nuclear receptor subfamily 0 group B member 1 (Homo sapiens, UniProt P51843); type: functional, cell-based;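 further: HEK293T cells transfected with SF-1 and DAX-1 plus StAR promoter luciferase reporter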
T1 sequence (P51843 whole entry): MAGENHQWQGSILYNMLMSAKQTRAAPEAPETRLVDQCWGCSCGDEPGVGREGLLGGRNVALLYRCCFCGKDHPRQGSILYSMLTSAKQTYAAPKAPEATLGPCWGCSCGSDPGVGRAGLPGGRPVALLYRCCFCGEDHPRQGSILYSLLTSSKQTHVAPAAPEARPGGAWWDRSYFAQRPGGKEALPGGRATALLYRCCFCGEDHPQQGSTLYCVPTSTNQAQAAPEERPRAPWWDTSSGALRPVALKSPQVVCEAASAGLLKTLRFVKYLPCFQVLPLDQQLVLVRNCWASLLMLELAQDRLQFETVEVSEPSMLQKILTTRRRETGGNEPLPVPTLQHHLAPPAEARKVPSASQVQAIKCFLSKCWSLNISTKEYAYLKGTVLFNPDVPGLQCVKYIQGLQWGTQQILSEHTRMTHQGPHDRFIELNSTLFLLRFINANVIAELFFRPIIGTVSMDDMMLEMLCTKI

Paired box protein Pax-8 = Paired box protein Pax-8 (Homo sapiens, UniProt Q06710); test: inhibitors of PAX8-driven TPO luciferase reporter, dose response, RMG-I cells, cherry-pick (AID 687027); type: functional, cell-based;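 further: luciferase reporter driven by Pax8 target thyroperoxidase promoter measured by SteadyGlo luminescence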
Cytochrome P450 1A2 = molecular target: T2, Cytochrome P450 1A2 (Homo sapiens, UniProt P05177);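 further: PubChem cytochrome P450 panel assay, CYP1A2 panel member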
T2 sequence (P05177 whole entry): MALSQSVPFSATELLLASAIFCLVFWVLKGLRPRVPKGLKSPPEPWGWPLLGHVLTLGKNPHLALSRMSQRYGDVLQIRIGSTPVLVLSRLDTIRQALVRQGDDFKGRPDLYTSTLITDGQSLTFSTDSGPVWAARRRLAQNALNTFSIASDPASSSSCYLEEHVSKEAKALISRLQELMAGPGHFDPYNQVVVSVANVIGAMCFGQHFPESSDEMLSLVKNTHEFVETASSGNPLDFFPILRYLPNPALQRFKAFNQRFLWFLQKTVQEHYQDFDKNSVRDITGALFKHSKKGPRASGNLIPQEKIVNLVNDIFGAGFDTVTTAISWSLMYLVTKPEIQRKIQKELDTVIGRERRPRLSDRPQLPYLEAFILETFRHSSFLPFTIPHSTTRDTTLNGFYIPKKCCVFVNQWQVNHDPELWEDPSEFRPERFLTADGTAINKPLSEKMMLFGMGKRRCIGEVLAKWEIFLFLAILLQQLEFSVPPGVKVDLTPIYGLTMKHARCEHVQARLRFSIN

[3] = microbe, parasite or virus in culture; type: functional; details: Mycobacterium tuberculosis
cells [4] = type: functional

Chain of Cytochrome P450 3A4 (P08684 whole entry): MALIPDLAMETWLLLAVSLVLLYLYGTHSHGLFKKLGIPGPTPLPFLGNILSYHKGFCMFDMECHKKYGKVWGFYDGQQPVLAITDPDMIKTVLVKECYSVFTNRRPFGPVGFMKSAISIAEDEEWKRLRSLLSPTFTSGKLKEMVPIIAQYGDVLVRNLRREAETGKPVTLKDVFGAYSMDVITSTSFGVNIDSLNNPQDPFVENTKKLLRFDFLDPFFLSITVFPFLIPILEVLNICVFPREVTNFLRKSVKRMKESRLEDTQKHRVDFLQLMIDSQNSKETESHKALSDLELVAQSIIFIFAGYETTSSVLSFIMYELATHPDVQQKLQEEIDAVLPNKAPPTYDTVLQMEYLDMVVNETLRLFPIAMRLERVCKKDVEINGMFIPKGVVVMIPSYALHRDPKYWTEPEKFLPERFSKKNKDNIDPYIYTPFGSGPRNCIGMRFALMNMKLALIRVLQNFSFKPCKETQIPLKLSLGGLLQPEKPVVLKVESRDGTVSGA
Chain of Cytochrome P450 2C19 (P33261 whole entry): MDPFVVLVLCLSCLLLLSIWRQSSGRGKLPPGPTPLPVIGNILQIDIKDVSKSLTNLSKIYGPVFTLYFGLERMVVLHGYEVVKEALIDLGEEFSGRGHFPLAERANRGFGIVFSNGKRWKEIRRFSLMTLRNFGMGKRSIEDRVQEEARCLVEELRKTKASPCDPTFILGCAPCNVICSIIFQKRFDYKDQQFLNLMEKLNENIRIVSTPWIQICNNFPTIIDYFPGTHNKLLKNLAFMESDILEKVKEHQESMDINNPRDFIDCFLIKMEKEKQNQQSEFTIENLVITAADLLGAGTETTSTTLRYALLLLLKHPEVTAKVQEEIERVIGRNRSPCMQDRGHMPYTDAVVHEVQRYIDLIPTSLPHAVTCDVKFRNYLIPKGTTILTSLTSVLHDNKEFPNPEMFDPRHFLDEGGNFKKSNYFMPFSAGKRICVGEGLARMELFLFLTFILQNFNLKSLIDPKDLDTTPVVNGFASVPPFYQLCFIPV
Chain of Cytochrome P450 2C9 (P11712 whole entry): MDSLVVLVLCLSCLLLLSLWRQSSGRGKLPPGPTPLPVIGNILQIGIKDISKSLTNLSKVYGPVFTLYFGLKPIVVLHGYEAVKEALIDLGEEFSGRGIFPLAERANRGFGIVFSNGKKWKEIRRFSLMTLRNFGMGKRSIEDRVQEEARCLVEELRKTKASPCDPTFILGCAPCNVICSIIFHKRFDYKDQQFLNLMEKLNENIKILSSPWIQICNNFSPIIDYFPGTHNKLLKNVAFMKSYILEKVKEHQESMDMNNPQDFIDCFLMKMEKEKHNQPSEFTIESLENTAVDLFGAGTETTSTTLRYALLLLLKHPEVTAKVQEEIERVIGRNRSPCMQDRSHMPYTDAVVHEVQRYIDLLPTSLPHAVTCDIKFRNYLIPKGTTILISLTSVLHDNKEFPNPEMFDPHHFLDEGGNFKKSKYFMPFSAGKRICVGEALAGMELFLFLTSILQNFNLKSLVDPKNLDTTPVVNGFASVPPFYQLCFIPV
Chain of Paired box protein Pax-8 (Q06710 whole entry): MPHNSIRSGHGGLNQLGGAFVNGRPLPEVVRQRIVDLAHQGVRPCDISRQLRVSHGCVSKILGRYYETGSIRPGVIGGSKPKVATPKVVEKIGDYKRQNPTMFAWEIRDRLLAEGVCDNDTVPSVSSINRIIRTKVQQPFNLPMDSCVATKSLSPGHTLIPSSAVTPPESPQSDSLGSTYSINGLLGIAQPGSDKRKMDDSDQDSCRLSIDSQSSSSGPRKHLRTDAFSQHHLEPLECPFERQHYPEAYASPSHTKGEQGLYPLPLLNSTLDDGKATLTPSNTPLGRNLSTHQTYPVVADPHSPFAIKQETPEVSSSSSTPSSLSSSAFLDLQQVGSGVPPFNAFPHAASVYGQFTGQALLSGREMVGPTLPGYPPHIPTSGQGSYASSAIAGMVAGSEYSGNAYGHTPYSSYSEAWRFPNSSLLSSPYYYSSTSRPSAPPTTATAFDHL

Compound | AC50 (Cytochrome P450 3A4) | IC50 (cells [1]) | IC50 [2] | AC50 (Cytochrome P450 1A2) | also measured
CCn1c(/C=C2/C(=O)N(C)c3ccccc32)nc2ccccc2c1=O | inconclusive | – | – | – | –
O=C(OC1CCN(c2ncc(C(F)(F)F)cc2Cl)CC1)c1cccc(C(F)(F)F)c1 | inconclusive | – | – | – | AC50 (Cytochrome P450 2C19): 8.91 µM (inconclusive); AC50 (Cytochrome P450 2C9): 0.2 µM (inconclusive)
CC(=Nc1ccccc1)C1=C(O)C(Cc2ccccc2)NC1=O (stereo not given) | – | > 67.6 µM (inactive) | 15.8 µM (inactive) | – | –
CC(=O)Nc1ccc(-c2ccnc3c2CC(C(=O)NCc2ccccc2)O3)cc1 (stereo not given) | – | > 67.5 µM (inactive) | > 67.5 µM (inactive) | – | AC50 (Paired box protein Pax-8): 1.5 µM (active)
O=C(c1ccc(F)cc1)C1CCN(CCCCc2ccccc2)CC1 | inconclusive | – | – | 31.6 µM (inconclusive) | –
Cc1cc(/C=N\NC(=O)c2cccs2)c(C)n1-c1ccc2ncccc2c1 | inconclusive | – | – | 39.8 µM (inconclusive) | CC50 [3]: > 40 µM (active); IC50 (cells [4]): 34 µM (active)
